Results reported in ChEMBL document CHEMBL3885881, “DrugMatrix”.

Organism: Rattus norvegicus
Assay: DrugMatrix - Regimen: Daily Repeat
Format: toxicity, organism-based, Sprague-Dawley
Parameters: regimen Daily Repeat, gender Male, age 6-8 weeks
Details: in vivo, po, route oral GAVAGE, vehicle .5 % CMC; for BASOPHIL / EOSINOPHIL / ERYTHROCYTE COUNT / HEMATOCRIT / HEMOGLOBIN / LEUKOCYTE COUNT / LYMPHOCYTE / MEAN CORPUSCULAR HEMOGLOBIN / MEAN CORPUSCULAR HEMOGLOBIN CONCENTRATION / MEAN CORPUSCULAR VOLUME / MONOCYTE / NEUTROPHIL / PLATELET COUNT: tissue Blood; for ALANINE AMINOTRANSFERASE / ALKALINE PHOSPHATASE / ASPARTATE AMINOTRANSFERASE / BLOOD UREA NITROGEN / CHLORIDE / CHOLESTEROL / CREATINE PHOSPHOKINASE / CREATININE / GLUCOSE / PHOSPHORUS / POTASSIUM / SODIUM / TOTAL BILIRUBIN / TOTAL PROTEIN: tissue Plasma
[1] = 0 mg/kg, 72 h, dose level Control, time 3 day
[2] = 0 mg/kg, 120 h, dose level Control, time 5 day
[3] = 20 mg/kg, 72 h, dose level Low, time 3 day
[4] = 20 mg/kg, 120 h, dose level Low, time 5 day
[5] = 95 mg/kg, 72 h, dose level High, time 3 day
[6] = 95 mg/kg, 120 h, dose level High, time 5 day

With CN1CCN(C2=Nc3cc(Cl)ccc3Nc3ccccc32)CC1 [CLOZAPINE] the BASOPHIL [1] was 0%, the EOSINOPHIL [1] was 0.33% and the “ERYTHROCYTE COUNT” value [1] was 6.2 x10E6/uL. The HEMATOCRIT [1] was 38.08%, the HEMOGLOBIN [1] was 14.92 G/DL and the “LEUKOCYTE COUNT” value [1] was 11.13 x10E3/uL. For the same compound, the LYMPHOCYTE [1] was 76%, the “MEAN CORPUSCULAR HEMOGLOBIN” value [1] was 24.1 pg and the “MEAN CORPUSCULAR HEMOGLOBIN CONCENTRATION” value [1] was 39.17 G/DL. The “MEAN CORPUSCULAR VOLUME” value [1] was 61.48 fL, the MONOCYTE [1] was 3.83% and the NEUTROPHIL [1] was 19.83%. The “PLATELET COUNT” value [1] was 1327.5 x10E3/uL, the “ALANINE AMINOTRANSFERASE” value [1] was 40.17 u/L and the “ALKALINE PHOSPHATASE” value [1] was 372 u/L. The “ASPARTATE AMINOTRANSFERASE” value [1] was 67.17 u/L, the “BLOOD UREA NITROGEN” value [1] was 18.83 mg/dL and the CHLORIDE [1] was 105.17 MEQ/L. The CHOLESTEROL [1] was 78.17 mg/dL, the “CREATINE PHOSPHOKINASE” value [1] was 149.17 u/L and the CREATININE [1] was 0.57 mg/dL. The GLUCOSE [1] was 185.17 mg/dL, the PHOSPHORUS [1] was 11.43 mg/dL and the POTASSIUM [1] was 6.78 MEQ/L. The SODIUM [1] was 152.83 MEQ/L, the “TOTAL BILIRUBIN” value [1] was 0.4 mg/dL and the “TOTAL PROTEIN” value [1] was 6.87 G/DL. The BASOPHIL [2] was 0%, the EOSINOPHIL [2] was 0% and the “ERYTHROCYTE COUNT” value [2] was 6.05 x10E6/uL. The HEMATOCRIT [2] was 36.55%, the HEMOGLOBIN [2] was 14.7 G/DL and the “LEUKOCYTE COUNT” value [2] was 11.8 x10E3/uL. For the same compound, the LYMPHOCYTE [2] was 86.83%, the “MEAN CORPUSCULAR HEMOGLOBIN” value [2] was 24.37 pg and the “MEAN CORPUSCULAR HEMOGLOBIN CONCENTRATION” value [2] was 40.32 G/DL. For the same compound, the “MEAN CORPUSCULAR VOLUME” value [2] was 60.47 fL, the MONOCYTE [2] was 0.83% and the NEUTROPHIL [2] was 12.33%. The “PLATELET COUNT” value [2] was 1177 x10E3/uL, the “ALANINE AMINOTRANSFERASE” value [2] was 41.83 u/L and the “ALKALINE PHOSPHATASE” value [2] was 377.5 u/L. For the same compound, the “ASPARTATE AMINOTRANSFERASE” value [2] was 60.83 u/L, the “BLOOD UREA NITROGEN” value [2] was 16 mg/dL and the CHLORIDE [2] was 105.67 MEQ/L. The CHOLESTEROL [2] was 67.83 mg/dL, the “CREATINE PHOSPHOKINASE” value [2] was 120.33 u/L and the CREATININE [2] was 0.6 mg/dL. It also gave a GLUCOSE [2] of 167.67 mg/dL, a PHOSPHORUS [2] of 10.03 mg/dL and a POTASSIUM [2] of 6.68 MEQ/L. The SODIUM [2] was 150.5 MEQ/L, the “TOTAL BILIRUBIN” value [2] was 0.57 mg/dL and the “TOTAL PROTEIN” value [2] was 6.25 G/DL. For the same compound, the BASOPHIL [3] was 0%, the EOSINOPHIL [3] was 0.5% and the “ERYTHROCYTE COUNT” value [3] was 5.3 x10E6/uL. The HEMATOCRIT [3] was 33.4%, the HEMOGLOBIN [3] was 12.8 G/DL and the “LEUKOCYTE COUNT” value [3] was 10.25 x10E3/uL. For the same compound, the LYMPHOCYTE [3] was 83.5%, the “MEAN CORPUSCULAR HEMOGLOBIN” value [3] was 24.2 pg and the “MEAN CORPUSCULAR HEMOGLOBIN CONCENTRATION” value [3] was 38.35 G/DL. The “MEAN CORPUSCULAR VOLUME” value [3] was 62.95 fL, the MONOCYTE [3] was 0% and the NEUTROPHIL [3] was 16%. The “PLATELET COUNT” value [3] was 1071.5 x10E3/uL, the “ALANINE AMINOTRANSFERASE” value [3] was 33.33 u/L and the “ALKALINE PHOSPHATASE” value [3] was 312 u/L. For the same compound, the “ASPARTATE AMINOTRANSFERASE” value [3] was 54 u/L, the “BLOOD UREA NITROGEN” value [3] was 13.33 mg/dL and the CHLORIDE [3] was 104.33 MEQ/L. The CHOLESTEROL [3] was 84.67 mg/dL, the “CREATINE PHOSPHOKINASE” value [3] was 145.33 u/L and the CREATININE [3] was 0.57 mg/dL. For the same compound, the GLUCOSE [3] was 148.67 mg/dL, the PHOSPHORUS [3] was 11.43 mg/dL and the POTASSIUM [3] was 6.5 MEQ/L. For the same compound, the SODIUM [3] was 149 MEQ/L, the “TOTAL BILIRUBIN” value [3] was 0.3 mg/dL and the “TOTAL PROTEIN” value [3] was 5.9 G/DL. For the same compound, the BASOPHIL [4] was 0%, the EOSINOPHIL [4] was 0% and the “ERYTHROCYTE COUNT” value [4] was 6.24 x10E6/uL. The HEMATOCRIT [4] was 37.73%, the HEMOGLOBIN [4] was 14.93 G/DL and the “LEUKOCYTE COUNT” value [4] was 15.97 x10E3/uL. For the same compound, the LYMPHOCYTE [4] was 93.67%, the “MEAN CORPUSCULAR HEMOGLOBIN” value [4] was 23.97 pg and the “MEAN CORPUSCULAR HEMOGLOBIN CONCENTRATION” value [4] was 39.57 G/DL. The “MEAN CORPUSCULAR VOLUME” value [4] was 60.57 fL, the MONOCYTE [4] was 1.33% and the NEUTROPHIL [4] was 5%. The “PLATELET COUNT” value [4] was 1152.67 x10E3/uL, the “ALANINE AMINOTRANSFERASE” value [4] was 36.67 u/L and the “ALKALINE PHOSPHATASE” value [4] was 370 u/L. For the same compound, the “ASPARTATE AMINOTRANSFERASE” value [4] was 55.67 u/L, the “BLOOD UREA NITROGEN” value [4] was 13 mg/dL and the CHLORIDE [4] was 106 MEQ/L. For the same compound, the CHOLESTEROL [4] was 72.33 mg/dL, the “CREATINE PHOSPHOKINASE” value [4] was 147.67 u/L and the CREATININE [4] was 0.57 mg/dL. For the same compound, the GLUCOSE [4] was 152.33 mg/dL, the PHOSPHORUS [4] was 11.4 mg/dL and the POTASSIUM [4] was 6.5 MEQ/L. The SODIUM [4] was 149 MEQ/L, the “TOTAL BILIRUBIN” value [4] was 0.3 mg/dL and the “TOTAL PROTEIN” value [4] was 5.87 G/DL. For the same compound, the BASOPHIL [5] was 0%, the EOSINOPHIL [5] was 0.33% and the “ERYTHROCYTE COUNT” value [5] was 6.22 x10E6/uL. For the same compound, the HEMATOCRIT [5] was 37.83%, the HEMOGLOBIN [5] was 14.53 G/DL and the “LEUKOCYTE COUNT” value [5] was 10.53 x10E3/uL. The LYMPHOCYTE [5] was 81.33%, the “MEAN CORPUSCULAR HEMOGLOBIN” value [5] was 23.4 pg and the “MEAN CORPUSCULAR HEMOGLOBIN CONCENTRATION” value [5] was 38.43 G/DL. For the same compound, the “MEAN CORPUSCULAR VOLUME” value [5] was 60.87 fL, the MONOCYTE [5] was 1% and the NEUTROPHIL [5] was 17.33%. The “PLATELET COUNT” value [5] was 1046 x10E3/uL, the “ALANINE AMINOTRANSFERASE” value [5] was 43.67 u/L and the “ALKALINE PHOSPHATASE” value [5] was 361.33 u/L. The “ASPARTATE AMINOTRANSFERASE” value [5] was 61.67 u/L, the “BLOOD UREA NITROGEN” value [5] was 16.33 mg/dL and the CHLORIDE [5] was 108 MEQ/L. The CHOLESTEROL [5] was 85.33 mg/dL, the “CREATINE PHOSPHOKINASE” value [5] was 131.33 u/L and the CREATININE [5] was 0.57 mg/dL. It also gave a GLUCOSE [5] of 153.33 mg/dL, a PHOSPHORUS [5] of 11.9 mg/dL and a POTASSIUM [5] of 7.33 MEQ/L. The SODIUM [5] was 154.33 MEQ/L, the “TOTAL BILIRUBIN” value [5] was 0.27 mg/dL and the “TOTAL PROTEIN” value [5] was 6.13 G/DL. The BASOPHIL [6] was 0%, the EOSINOPHIL [6] was 0.67% and the “ERYTHROCYTE COUNT” value [6] was 6.78 x10E6/uL. For the same compound, the HEMATOCRIT [6] was 41.33%, the HEMOGLOBIN [6] was 16.27 G/DL and the “LEUKOCYTE COUNT” value [6] was 12.7 x10E3/uL. For the same compound, the LYMPHOCYTE [6] was 89.67%, the “MEAN CORPUSCULAR HEMOGLOBIN” value [6] was 24.13 pg and the “MEAN CORPUSCULAR HEMOGLOBIN CONCENTRATION” value [6] was 39.43 G/DL. The “MEAN CORPUSCULAR VOLUME” value [6] was 61.1 fL, the MONOCYTE [6] was 0.33% and the NEUTROPHIL [6] was 9.33%. For the same compound, the “PLATELET COUNT” value [6] was 1299 x10E3/uL, the “ALANINE AMINOTRANSFERASE” value [6] was 60.33 u/L and the “ALKALINE PHOSPHATASE” value [6] was 306.67 u/L. The “ASPARTATE AMINOTRANSFERASE” value [6] was 59.67 u/L, the “BLOOD UREA NITROGEN” value [6] was 14.67 mg/dL and the CHLORIDE [6] was 107 MEQ/L. The CHOLESTEROL [6] was 96.67 mg/dL, the “CREATINE PHOSPHOKINASE” value [6] was 136 u/L and the CREATININE [6] was 0.5 mg/dL. The GLUCOSE [6] was 158 mg/dL, the PHOSPHORUS [6] was 11.83 mg/dL and the POTASSIUM [6] was 6.7 MEQ/L. The SODIUM [6] was 155.67 MEQ/L, the “TOTAL BILIRUBIN” value [6] was 0.2 mg/dL and the “TOTAL PROTEIN” value [6] was 6.6 G/DL.
